Test results from patent US10316008B2, “KCNQ potassium channel agonist, and preparation method therefor and use thereof” (SHANGHAI INSTITUTE OF MATERIA MEDICA, CHINESE ACADEMY OF …, priority 2014, dated 2019).
Counter-ions that a name gives are not always drawn.

Columns and labels:
[1] = biological target: T1, KCNQ2/3 heterotetramer channel (Homo sapiens, UniProt O43525+O43526); experiment: KCNQ2/3 heterotetramer channel dose-response curve in CHO-K1 cells cotransfected with KCNQ2 and KCNQ3 plasmids; type: cell-based
T1 construct: expressed in transfected cells; host or cells: CHO-K1
Description: (§1) The culture medium for Chinese hamster oocytes (CHO-K1) (Culture Collection of Chinese Academy of Sciences): 50/50 DMEM/F-12 (Cellgro, Manassas, Va.), added with 10% fetal bovine serum (FBS) (Gibco, Australia) and 2 mM L-glutamic acid (Invitrogen). Expression of KCNQ channels: 24 h before transfection, CHO-K1 spreaded on a dish with a diameter of 60 mm. Lipofectamine 2000™ agent (Invitrogen) was used for Transfection according to the protocol thereof. GFP (green fluorescent protein) was cotransfected to be used as a indication of successful converting into KCNQ plasmid.
(§2) Whole-cell voltage-clamp recording was performed on an Axopatch-200B amplifier (Molecular Devices, Sunnyvale, Calif.) at room temperature. The electrode was made by drawing borosilicate glass capillary (World Precision Instruments, Sarasota, Fla.). The electric resistance of the electrode filled with an intracellular fluid is 3 to 5 MΩ. The composition of the intracellular fluid (1 L) was as follows: 145 mM KCl(Sigma), 1 mM MgCl2(Sigma), 5 mM EGTA(Sigma), 10 mM HEPES(Sigma) and 5 mM MgATP(Sigma) (pH was adjusted to 7.3 with KOH). During the recording, an extracellular fluid was continuously perfused by using a BPS perfusion system (ALA Scientific Instruments, Westburg, N.Y.). The composition of the extracellular fluid (1 L) was as follows: 140 mM NaCl(Sigma), 5 mM KCl(Sigma), 2 mM CaCl2(Sigma), 1.5 mM MgCl2(Sigma), 10 mM HEPES(Sigma) and 10 mM glucose(Sigma) (pH was adjusted to 7.4 with NaOH). Electric signal was filtered at 1 kHz and further converted into digital signal by using pClamp 9.2 software (Molecular Devices, Sunnyvale, Calif.) in DigiData 1322A. Series resistors compensate 60 to 80%. Up to date, multivoltage scheme was generally adopted, wherein the clamp voltage was set at −80 mV, stimulating voltage was a gradient voltage from −90 mV to 60 mV with interval of 10 mV, and the stimulating time for each voltage was 2000 ms.
The experimental procedure was the same as that in Electrophysiological Example 1. […]

KCNQ potassium channel = experiment: Whole-cell voltage-clamp recording in CHO-K1 cells transfected with KCNQ plasmid; type: cell-based; conditions: for I/I0: current enhancement factor, −10 mV testing voltage, compound concentration 10 μM, >1 activating, <1 inhibiting; for ΔV1/2: shift of V1/2, negative sign = left-ward shift of current activation curve, compound 10 μM, CHO-K1 cells
Description: as §1, with “Expression of KCNQ channels: 24 h before transfection, CHO-K1 spreaded on a dish with a diameter of 60 mm.” left out
as §2, with “The composition of the intracellular fluid (1 L) was as follows: 145 mM KCl(Sigma), 1 mM MgCl2(Sigma), 5 mM EGTA(Sigma), 10 mM HEPES(Sigma) and 5 mM MgATP(Sigma) (pH was adjusted to 7.3 with KOH).” left out, “Electric signal was filtered at 1 kHz and further converted into digital signal by using pClamp 9.2 software (Molecular Devices, Sunnyvale, Calif.) in DigiData 1322A.” left out
V1/2 is the voltage at which 50% of cells were activated, ΔV1/2 is the shift amount of V1/2, negative sign (−) represents a left-ward shift of the current activation curve. I/I0 represents the current enhancement factor, wherein, I0 is the maximum induced current produced under stimulation of −10 mV testing voltage after administrating cells with blank extracellular fluid, I is the maximum induced current produced under stimulation of −10 mV testing voltage after administrating the drug (the compound concentration was 10 μM), I/I0>1 represents activating activity, and I/I0<1 represents inhibiting activity. N is the number of tested cells. NT represents non-tested.

[2] = Rotarod experiment, motor coordination ability (acute neurotoxicity); type: in vivo, KM mice; conditions: both sexes, KM, mouse, in vivo; mice, oral perfusion, Rotarod 30 mins after administration; read-out: TD50 (50% acute neurotoxicity dose)
Description: YLS-4C Rotarod system was used in the experiment, wherein the diameter of the rod was 3 cm and the rotate speed was set at 6 rpm. Healthy KM mice (SPF level) were selected, wherein male and female were equal, the body weight was 18 to 22 g. One day before experiment, the mice were place on the rotarod for training and screening. The tail tip of mice was held to make them creep on the rotarod during the training. […] The mice that jumped on the rotarod or griped the rotarod were weed out. In addition, three time periods were set with 1 min for each. […] The qualified mice were randomly caged according to the gender, and allowed to eat and drink freely.
On the day of the experiment, each compound to be tested was freshly formulated by the same method as described in MES experiment. If the compound was not sufficiently suspended, the suspension was further mixed by ultrasonication for 20 min so as to make the compound sufficiently suspended. […] 30 mins after administration, Rotarod experiment was performed and the experiment parameters were the same as the above. The number of mice that fell off from the rorarod was recorded, and the influence of each compound on motor coordination ability of mice was analyzed. The curve for dose of each compound verse motor deficit (percentage) of mice for each compound was obtained according to the analysis of Graphpad Prism 5 software and was shown in FIG. 4.

## C#CCN(Cc1ccc(F)cc1)c1cc(C)c(NC(=O)OC)c(C)c1 [Compound K43, methyl 4-(N-parafluorobenzyl-N-propargyl-amino)-2,6-dimethylphenylaminoformate]
[1]; FIG. 2, Boltzmann fit
  EC50: 49 nM
[1]; fold of K21
  agonistic activity on KCNQ2/3 heterotetramer channel relative to K21: ≥ 20 times
[1]; fold of RTG
  agonistic activity on KCNQ2/3 heterotetramer channel relative to RTG: ≥ 30 times

## C#CCN(Cc1ccc(F)cc1)c1ccc(NC(=O)OC)c(C)c1 [K41•HCl]
KCNQ potassium channel
  I/I0: 4.8 ± 0.73
  ΔV1/2: −23.28 ± 1.37 mV
[2]
  TD50 at 30 min: 103 mg/kg

## C#CCN(Cc1ccc(F)cc1)c1cc(C)c(NC(=O)OC)c(C)c1.Cl [K43•HCl, methyl 4-(N-parafluorobenzyl-N-propargyl-amino)-2,6-dimethylphenylaminoformate hydrochloride]
KCNQ potassium channel
  I/I0: 4.75 ± 1.29
  ΔV1/2: −38.52 ± 1.67 mV
[2]
  TD50 at 30 min: 152 mg/kg
